# In DBAASP:
# Several values for one entry are separate records, joined by “and”; a condition that tells them apart may be missing. Equal entries are not always repeated.
# Key:
# Assay in all cases: ≥ marks a high value that may be exact or a test limit, other limits are often not marked, values filed in µg/mL are converted to µM
# [1] = system: Acinetobacter baumannii ATCC 19606
# [2] = system: Candida albicans ATCC 90028
# [3] = system: Candida parapsilosis ATCC 22019
# [4] = system: Enterococcus faecalis ATCC 29212
# [5] = system: Escherichia coli ATCC 25922
# Escherichia coli ML-35p = system: Escherichia coli ML-35p
# [6] = system: Klebsiella pneumoniae ATCC 13883
# Listeria ivanovii = system: Listeria ivanovii
# [7] = system: Pseudomonas aeruginosa ATCC 27853
# Saccharomyces cerevisiae = system: Saccharomyces cerevisiae
# [8] = system: Salmonella enterica subsp. enterica serovar Enteritidis
# [9] = system: Staphylococcus aureus ATCC 25923
# [10] = system: Staphylococcus aureus ST1065
# [11] = system: Streptococcus pyogenes ATCC 19615
# [12] = system: Candida albicans ATCC 64550
# Escherichia coli = system: Escherichia coli
# [13] = system: Arthrobacter globiformis VKM Ac-1112
# [14] = system: Bacillus subtilis VKM B-501
# [15] = system: Escherichia coli DH5alpha
# Escherichia coli MH1 = system: Escherichia coli MH1
# [16] = system: Pseudomonas aeruginosa PAO1
# [17] = system: Saccharomyces cerevisiae Y190
# Escherichia coli W160-37 = system: Escherichia coli W160-37
# Staphylococcus aureus = system: Staphylococcus aureus
# [18] = system: Candida albicans ATCC 37092
# [19] = system: Staphylococcus aureus ATCC 29213
# Candida albicans = system: Candida albicans
# Escherichia coli UB1005 = system: Escherichia coli UB1005
# [20] = system: Pseudomonas aeruginosa ATCC 9027
# [21] = system: Pseudomonas aeruginosa H103
# [22] = system: Salmonella enterica serovar Typhimurium
# [23] = system: Staphylococcus aureus USA 100
# [24] = system: Staphylococcus aureus USA 300
# [25] = system: Staphylococcus epidermidis
structure (smiles),measurement,setting,value
CC[C@H](C)[C@H](NC(=O)CNC(=O)[C@H](CCCCN)NC(=O)[C@H](C)NC(=O)[C@@H](N)Cc1ccccc1)C(=O)N[C@@H](C)C(=O)NCC(=O)N[C@@H](CCSC)C(=O)N[C@@H](C)C(=O)NCC(=O)N[C@@H](CCCCN)C(=O)N[C@@H](CC(C)C)C(=O)N[C@@H](Cc1ccccc1)C(N)=O [FAKGIAGMAGKLF],MIC,[1],> 200 µM
same,MIC,[2],≥ 200 µM
same,MIC,[3],≥ 200 µM
same,MIC,[4],> 200 µM
same,MIC,[5],> 200 µM
same,MIC,Escherichia coli ML-35p,≥ 200 µM
same,MIC,[6],≥ 200 µM
same,MIC,Listeria ivanovii,≥ 200 µM
same,MIC,[7],> 200 µM
same,MIC,Saccharomyces cerevisiae,≥ 200 µM
same,MIC,[8],≥ 200 µM
same,MIC,[9],> 200 µM
same,MIC,[10],≥ 200 µM
same,MIC,[11],≥ 100 µM
NCCCC[C@H](NC(=O)[C@H](CCCCN)NC(=O)[C@H](CCCN=C(N)N)NC(=O)[C@H](CCCN=C(N)N)NC(=O)[C@H](Cc1c[nH]c2ccccc12)NC(=O)[C@H](Cc1c[nH]c2ccccc12)NC(=O)[C@H](CCCN=C(N)N)NC(=O)[C@H](CCCCN)NC(=O)[C@H](Cc1c[nH]c2ccccc12)NC(=O)[C@@H](N)CCCN=C(N)N)C(N)=O [RWKRWWRRKK],MIC,[12],≥ 100 µM
same,MIC,Escherichia coli,3 µM
same,MIC,[9],3 µM and 6 µM
CSCC[C@H](NC(=O)[C@H](CO)NC(=O)[C@H](C)NC(=O)[C@H](Cc1c[nH]c2ccccc12)NC(=O)[C@@H](N)CO)C(=O)N[C@@H](C)C(=O)N[C@@H](CCCCN)C(=O)N[C@@H](CCCCN)C(=O)N[C@@H](CC(C)C)C(=O)N[C@@H](CCCCN)C(=O)N[C@@H](CCC(=O)O)C(=O)N[C@@H](Cc1ccc(O)cc1)C(=O)N[C@@H](CCSC)C(=O)N[C@@H](CCC(=O)O)C(=O)N[C@@H](CCCCN)C(=O)N[C@@H](CC(C)C)C(=O)N[C@@H](CCCCN)C(=O)N[C@@H](CCC(N)=O)C(=O)N[C@@H](CCCN=C(N)N)C(=O)N[C@@H](C)C(N)=O [SWASMAKKLKEYMEKLKQRA],MIC,[13],0.7 µM
same,MIC,[14],2.9 µM
same,MIC,[15],23 µM
same,MIC,Escherichia coli MH1,28 µM
same,MIC,[16],> 45 µM
same,MIC,[17],23 µM
CC[C@H](C)[C@H](N)C(=O)N[C@@H](CC(C)C)C(=O)N1CCC[C@H]1C(=O)N[C@@H](CC(C)C)C(=O)N[C@@H](CCCCN)C(=O)N[C@@H](CC(C)C)C(=O)N1CCC[C@H]1C(=O)N[C@@H](CC(C)C)C(=O)N[C@@H](CC(C)C)C(=O)N1CCC[C@H]1C(=O)N[C@@H](Cc1c[nH]c2ccccc12)C(=O)N[C@@H](CCCN=C(N)N)C(=O)N[C@@H](CCCN=C(N)N)C(N)=O [ILPLKLPLLPWRR],MIC,Escherichia coli W160-37,12.4 µM
same,MIC,Staphylococcus aureus,3.1 µM
CC[C@H](C)[C@H](NC(=O)[C@H](CCCN=C(N)N)NC(=O)[C@@H](N)CCCN=C(N)N)C(=O)N[C@@H](CCCN=C(N)N)C(=O)N1CCC[C@H]1C(=O)N[C@@H](CCCN=C(N)N)C(=O)N1CCC[C@H]1C(=O)N1CCC[C@H]1C(=O)N[C@@H](CCCN=C(N)N)C(=O)N[C@@H](CC(C)C)C(=O)N1CCC[C@H]1C(=O)N[C@@H](CCCN=C(N)N)C(=O)N1CCC[C@H]1C(=O)N[C@@H](CCCN=C(N)N)C(=O)N1CCC[C@H]1C(=O)N[C@@H](CCCN=C(N)N)C(=O)N1CCC[C@H]1C(=O)O [RRIRPRPPRLPRPRPRP],MIC,[18],1.05 µM
same,MIC,[5],0.89 µM
same,MIC,[19],0.81 µM
CC[C@H](C)[C@H](NC(=O)[C@H](Cc1c[nH]c2ccccc12)NC(=O)[C@H](CCCCN)NC(=O)[C@H](CCCCN)NC(=O)[C@H](CC(C)C)NC(=O)[C@H](Cc1ccccc1)NC(=O)[C@H](CCCCN)NC(=O)[C@H](CCCCN)NC(=O)[C@H](CC(C)C)NC(=O)[C@H](CC(C)C)NC(=O)[C@H](CCCCN)NC(=O)[C@@H]1CCCN1)C(=O)NCC(=O)O [PKLLKKFLKKWIG],MIC,Escherichia coli W160-37,24 µM
same,MIC,Staphylococcus aureus,13 µM
CC[C@H](C)[C@H](NC(=O)[C@@H]1CCCN1C(=O)[C@H](CCCN=C(N)N)NC(=O)[C@@H]1CCCN1C(=O)CNC(=O)[C@@H]1CCCN1C(=O)[C@H](CCCN=C(N)N)NC(=O)[C@@H]1CCCN1C(=O)[C@H](Cc1ccccc1)NC(=O)[C@@H]1CCCN1C(=O)[C@H](CC(C)C)NC(=O)[C@@H]1CCCN1C(=O)[C@H](CCCN=C(N)N)NC(=O)[C@@H]1CCCN1C(=O)[C@@H](NC(=O)[C@@H]1CCCN1C(=O)[C@H](CCCN=C(N)N)NC(=O)[C@@H]1CCCN1C(=O)CNC(=O)[C@@H]1CCCN1C(=O)[C@H](CCCN=C(N)N)NC(=O)[C@@H]1CCCN1C(=O)[C@H](Cc1ccccc1)NC(=O)[C@@H]1CCCN1C(=O)[C@H](CC(C)C)NC(=O)[C@@H]1CCCN1)[C@@H](C)CC)C(=O)N1CCC[C@H]1C(=O)N[C@@H](CCCN=C(N)N)C(=O)N1CCC[C@H]1C(=O)O [PLPFPRPGPRPIPRPLPFPRPGPRPIPRP],MIC,[18],0.5 µM
same,MIC,[5],5.84 µM
same,MIC,[19],30.5 µM
CC[C@H](C)[C@H](NC(=O)[C@H](Cc1ccc(O)cc1)NC(=O)[C@H](CCC(N)=O)NC(=O)[C@H](CCCCN)NC(=O)[C@H](CC(C)C)NC(=O)[C@H](CCCCN)NC(=O)[C@H](CCC(=O)O)NC(=O)CNC(=O)[C@H](CCSC)NC(=O)[C@H](CO)NC(=O)[C@H](CCCCN)NC(=O)[C@@H](NC(=O)[C@H](CCCCN)NC(=O)[C@H](CC(=O)O)NC(=O)[C@H](CCCCN)NC(=O)[C@H](CC(C)C)NC(=O)[C@@H](N)CO)C(C)C)C(=O)N[C@@H](CCC(N)=O)C(=O)N[C@H](C(=O)N[C@@H](Cc1c[nH]c2ccccc12)C(=O)N[C@@H](CCCCN)C(=O)N[C@@H](C)C(=O)N[C@@H](CCCCN)C(=O)N[C@@H](Cc1ccccc1)C(N)=O)[C@@H](C)O [SLKDKVKSMGEKLKQYIQTWKAKF],MIC,[13],0.3 µM
same,MIC,[14],1.1 µM
same,MIC,[15],4.4 µM
same,MIC,Escherichia coli MH1,4.4 µM
same,MIC,[16],> 35 µM
same,MIC,[17],≥ 35 µM
CC[C@H](C)[C@H](NC(=O)CNC(=O)[C@@H](N)CCCCN)C(=O)N[C@H](C(=O)NCC(=O)N[C@@H](CCSC)C(=O)N[C@@H](CC(C)C)C(=O)NCC(=O)N[C@@H](CCCCN)C(=O)N[C@@H](CC(C)C)C(=O)N[C@@H](Cc1ccccc1)C(N)=O)C(C)C [KGIVGMLGKLF],MIC,[1],50 µM
same,MIC,[2],12 µM
same,MIC,[3],≥ 50 µM
same,MIC,[4],> 200 µM
same,MIC,[5],30 µM
same,MIC,Escherichia coli ML-35p,25 µM
same,MIC,[6],≥ 100 µM
same,MIC,Listeria ivanovii,12 µM
same,MIC,[7],25 µM
same,MIC,Saccharomyces cerevisiae,12 µM
same,MIC,[8],≥ 100 µM
same,MIC,[9],40 µM
same,MIC,[10],≥ 40 µM
same,MIC,[11],≥ 50 µM
CC[C@H](C)[C@H](NC(=O)[C@@H](NC(=O)[C@H](Cc1c[nH]c2ccccc12)NC(=O)[C@@H](NC(=O)[C@@H](N)CCCN=C(N)N)[C@@H](C)CC)C(C)C)C(=O)N[C@@H](CCCN=C(N)N)C(=O)N[C@@H](Cc1c[nH]c2ccccc12)C(=O)N[C@@H](CCCN=C(N)N)C(N)=O [RIWVIRWR],MIC,[2],≥ 100 µM
same,MIC,Candida albicans,13.5 µM
same,MIC,[4],6.75 µM
same,MIC,Escherichia coli UB1005,3.38 µM
same,MIC,[20],25 µM
same,MIC,[21],13.5 µM
same,MIC,[22],13.5 µM
same,MIC,[9],3.38 µM
same,MIC,[23],12.5 µM
same,MIC,[24],12.5 µM
same,MIC,[25],3.38 µM
